Experimental data from patent publication EP4810052A2, “HCRHR2 SELECTIVE POLYPEPTIDES” (Gubra A/S, priority 2023, dated 2026).
Where two headings read alike, the source gives them in different places. Starred links: 1 amine or outer side, 2 acyl side, 3 side chain; linkers in the order of their positions; H or OH if unused. Non-standard residues stand in square brackets, D forms with d. Residues, ends and D or L forms follow the SMILES beside them. Groups on a side chain read outwards from the residue. *: point of attachment. C20 diacid = O=C(O)CCCCCCCCCCCCCCCCCCC(=O)*; γGlu = O=C(O)[C@H](CCC(=O)[*:2])N[*:1]; NMeI = CC[C@H](C)[C@H](NC)C(=O)O; AEEA = NCCOCCOCC(=O)O; Aib = CC(C)(N)C(=O)O

Legend:
hCRHR1 = molecular target: T1, hCRHR1 (Homo sapiens, UniProt P34998); experiment: HTRF cAMP assay, determination of hCRHR1 potency (peptide libraries 5 conc., purified peptides 11 conc.); format: cell-based
T1 sequence (P34998 24-415): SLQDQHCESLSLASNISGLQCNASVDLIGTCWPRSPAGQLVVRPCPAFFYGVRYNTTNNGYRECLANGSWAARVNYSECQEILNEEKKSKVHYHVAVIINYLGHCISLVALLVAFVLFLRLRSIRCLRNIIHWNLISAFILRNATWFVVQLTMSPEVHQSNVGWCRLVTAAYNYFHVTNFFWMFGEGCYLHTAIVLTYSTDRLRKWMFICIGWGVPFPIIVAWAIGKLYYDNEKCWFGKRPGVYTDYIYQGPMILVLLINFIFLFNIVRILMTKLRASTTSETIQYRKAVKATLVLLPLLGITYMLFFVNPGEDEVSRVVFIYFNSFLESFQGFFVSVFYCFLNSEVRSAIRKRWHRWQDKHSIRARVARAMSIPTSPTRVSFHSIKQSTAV
Procedure, shortened: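 Cellular cAMP was read by time-resolved FRET between d2-labelled cAMP and cryptate anti-cAMP antibody. The cells were freshly thawed suspension CHO-K1 cells stably expressing human CRHR1.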

PK in rats = format: in vivo; design: T½ / MRT: unit not given here; settings: for MRT / T½ / clearance / half-life / Cmax / Tmax: Rat; for clearance / half-life / Cmax / Tmax / bioavailability: male, in vivo; for clearance / half-life / Cmax / Tmax: Sprague Dawley (RJHan:SD); for half-life: read-out: T½ (converted); for bioavailability: Sprague Dawley, rat
Method: Lean male Sprague Dawley rats (RJHan:SD) were obtained from JanVier (JanVier Labs, France) at 7 weeks of age. The animals were pair housed until randomization under a 12/12 h dark-light cycle, light off at 3 PM. Room temperature was controlled to 22°C ± 1°C, with 60 % ± 20% humidity.
Animals had ad libitum access to regular rodent chow (Altromin 1324, Brogaarden, Denmark) and tap water.
After 2 weeks of acclimatization, the animals were single housed and randomized into treatment groups (n = 3 per group) based on body weight on study day -3. On study day 1, animals were dosed 50 nmol/kg IV and SC in combination of two peptides. Plasma samples were collected for PK analysis at times 0.17, 1, 3, 6, 24, 30, 48, 72 and 96 hours post dosing. Plasma samples were analyzed using LC-MSMS and PK parameters were estimated by Non-Compartmental Analysis (NCA).

hCRHR2 = molecular target: T2, hCRHR2 (Homo sapiens, UniProt Q13324); experiment: HTRF cAMP assay, determination of hCRHR2 potency (peptide libraries 5 conc., purified peptides 11 conc.); format: cell-based
T2 sequence (Q13324 1-411): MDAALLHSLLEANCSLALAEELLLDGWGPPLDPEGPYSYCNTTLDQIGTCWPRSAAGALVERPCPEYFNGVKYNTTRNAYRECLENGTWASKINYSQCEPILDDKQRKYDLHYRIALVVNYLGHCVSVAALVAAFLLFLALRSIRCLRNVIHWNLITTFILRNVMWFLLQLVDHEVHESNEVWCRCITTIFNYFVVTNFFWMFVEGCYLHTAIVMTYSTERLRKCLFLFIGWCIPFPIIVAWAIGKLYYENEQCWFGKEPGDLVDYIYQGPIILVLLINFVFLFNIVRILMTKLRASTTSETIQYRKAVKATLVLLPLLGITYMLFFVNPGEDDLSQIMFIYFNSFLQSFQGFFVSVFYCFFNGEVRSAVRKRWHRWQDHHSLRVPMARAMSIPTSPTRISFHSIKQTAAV
Procedure, shortened: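 EC50 derived by variable-slope sigmoid regression of FRET-based cAMP data; cellular cAMP displaced d2-labelled tracer from cryptate anti-cAMP antibody. Stable human CRHR2 CHO-K1 suspension cells, revived from frozen stocks just before the run.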

[1] = Thioflavin T fibril formation assay of purified peptides; format: physicochemical; design: key: Amyloid fibril formation detected by an increase in ThT fluorescence was denoted with "Yes"; samples without increasing ThT fluorescence hence not forming amyloid fibrils were denoted "No"; settings: for Amyloid fibril formation + semaglutide (Ozempic®), pH 7.4: 200 µM compound dissolved in semaglutide drug product, listed as None = drug product alone; for Amyloid fibril formation pH 7.0 / Amyloid fibril formation pH 7.5 / Amyloid fibril formation pH 8.0: 200 µM in 50 mM phosphate buffer
Procedure, shortened: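 Fibril formation read as rising ThT emission at 480 nm (450 nm excitation), 4 µM ThT, over 96 h at 40°C with alternating 5-min rest and 700 rpm shaking cycles, in triplicate. Samples were 200 µM compound in 50 mM phosphate at various pH values, or co-formulated at 200 µM in semaglutide product at pH 7.4.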

[2] = purified peptides, CHO-K1 cells stably expressing hCRHR1, cAMP HTRF, read-out: hCRHR1 EC50
[3] = stable cell system, Table 10, read-out: Stable EC50 (nM) hCRHR 1
[4] = purified peptides, CHO-K1 cells stably expressing hCRHR2, cAMP HTRF, read-out: hCRHR2 EC50

| Structure (SMILES) | EC50 (hCRHR1; [2]) [nM] | EC50 (hCRHR1; [3]) [nM] | MRT (PK in rats) | T½ (PK in rats) | clearance (PK in rats; iv, 50 nmol/kg i.v.) [mL/min/kg] | half-life (PK in rats; iv, 50 nmol/kg i.v.) [h] | Cmax (PK in rats; sc, 50 nmol/kg s.c.) [nM] | Tmax (PK in rats; sc, 50 nmol/kg s.c.) [h] | half-life (PK in rats; sc, 50 nmol/kg s.c.) [h] | bioavailability (PK in rats; sc) [%] | Solubility pH 7.5, target conc. =10 mg/mL (measured mg/mL) (pH 7.5) [mg/mL] | Selectivity ratio (hCRHR1/ hCRHR2) (hCRHR2; hCRHR1-EC50/hCRHR2-EC50) | EC50 (hCRHR2; [4]) [nM] | Fibrillation (pH 7.5) ([1]; pH 7.5, ThT assay) | Solubility pH 6.5 (mg/ml) | Solubility pH 7.0 (mg/mL) | Solubility pH 7.5 (mg/mL) (pH 7.5) | Solubility pH 7.5 + phenol (mg/mL) (pH 7.5) | Amyloid fibril formation + semaglutide (Ozempic®), pH 7.4 [1] | Amyloid fibril formation pH 7.0 [1] | other results |
| --- | --- | --- | --- | --- | --- | --- | --- | --- | --- | --- | --- | --- | --- | --- | --- | --- | --- | --- | --- | --- | --- |
| CC[C@H](C)[C@H](N)C(=O)N[C@H](C(=O)N[C@@H](CC(C)C)C(=O)N[C@@H](CO)C(=O)N[C@@H](CC(C)C)C(=O)N[C@@H](CC(=O)O)C(=O)N[C@H](C(=O)N1CCC[C@H]1C(=O)N[C@H](C(=O)NCC(=O)N[C@@H](CC(C)C)C(=O)N[C@@H](CC(C)C)C(=O)N[C@@H](CCC(N)=O)C(=O)N[C@H](C(=O)N[C@@H](CC(C)C)C(=O)N[C@@H](CC(C)C)C(=O)N[C@@H](CCC(=O)O)C(=O)N[C@@H](CCC(N)=O)C(=O)N[C@@H](C)C(=O)N[C@@H](CCCNC(=N)N)C(=O)N[C@@H](C)C(=O)N[C@@H](CCCNC(=N)N)C(=O)N[C@@H](C)C(=O)N[C@@H](C)C(=O)N[C@@H](CCCNC(=N)N)C(=O)N[C@@H](CCC(=O)O)C(=O)N[C@@H](CCC(N)=O)C(=O)N[C@@H](C)C(=O)N[C@@H](CCCCNC(=O)COCCOCCNC(=O)COCCOCCNC(=O)CC[C@H](NC(=O)CC[C@H](NC(=O)CCCCCCCCCCCCCCCCCCC(=O)O)C(=O)O)C(=O)O)C(=O)N[C@H](C(=O)N[C@@H](CC(N)=O)C(=O)N[C@@H](C)C(=O)N[C@@H](CCC(=O)O)C(=O)N[C@H](C(=O)N[C@@H](CC(C)C)C(=O)N[C@@H](C)C(=O)N[C@@H](CCC(=O)O)C(=O)N[C@H](C(N)=O)C(C)C)[C@@H](C)CC)[C@@H](C)O)[C@@H](C)CC)[C@@H](C)CC)C(C)C)C(C)C [SEQ ID NO: 3] (H-IVLSLDVPIGLLQILLEQARARAAREQAK([AEEA-AEEA-γGlu-γGlu-C20 diacid])TNAEILAEV-NH2) | > 5000 | > 5000 | 9.2 | 7.7 | 0.0833 | 7.7 | 90 | 24 | 7.9 | 27 | 10 | >4546 | 1.1 | No |  |  |  |  |  |  | EC50 (hCRHR1; Table 3, matched molecular pairs X^38 L vs Nle, peptide library of Example 4, read-out: hCRHR1 pEC50 (converted)): 25100 nM; EC50 (hCRHR1; Table 5, purified peptides, read-out: hCRHR1 EC50): > 5000 nM; Solubility pH 7.5, target conc. =5 mg/mL (measured mg/mL) (pH 7.5): 4.5 mg/mL; EC50 (hCRHR2; Table 3, matched molecular pairs X^38 L vs Nle, peptide library of Example 4, read-out: hCRHR2 pEC50 (converted)): 0.501 nM; Selectivity ratio (hCRHR1/ hCRHR2) (hCRHR2; Table 5): >4546; Fibrillation (pH 7.5) ([1]; pH 7.5): No |
| CC[C@H](C)[C@H](NC)C(=O)N[C@H](C(=O)N[C@@H](CC(C)C)C(=O)N[C@@H](CO)C(=O)N[C@@H](CC(C)C)C(=O)N[C@@H](CC(=O)O)C(=O)N[C@H](C(=O)N1CCC[C@H]1C(=O)N[C@H](C(=O)NCC(=O)N[C@@H](CC(C)C)C(=O)N[C@@H](CC(C)C)C(=O)N[C@@H](CCC(N)=O)C(=O)N[C@H](C(=O)N[C@@H](CC(C)C)C(=O)N[C@@H](CC(C)C)C(=O)N[C@@H](CCC(=O)O)C(=O)N[C@@H](CCC(N)=O)C(=O)N[C@@H](C)C(=O)N[C@@H](CCCNC(=N)N)C(=O)N[C@@H](C)C(=O)N[C@@H](CCCNC(=N)N)C(=O)N[C@@H](C)C(=O)N[C@@H](C)C(=O)N[C@@H](CCCNC(=N)N)C(=O)N[C@@H](CCC(=O)O)C(=O)N[C@@H](CCC(N)=O)C(=O)N[C@@H](C)C(=O)N[C@@H](CCCCNC(=O)COCCOCCNC(=O)COCCOCCNC(=O)CC[C@H](NC(=O)CC[C@H](NC(=O)CCCCCCCCCCCCCCCCCCC(=O)O)C(=O)O)C(=O)O)C(=O)N[C@H](C(=O)N[C@@H](CC(N)=O)C(=O)NC(C)(C)C(=O)N[C@@H](CCC(=O)O)C(=O)N[C@H](C(=O)N[C@@H](CC(C)C)C(=O)N[C@@H](C)C(=O)N[C@@H](CCC(=O)O)C(=O)N[C@H](C(N)=O)C(C)C)[C@@H](C)CC)[C@@H](C)O)[C@@H](C)CC)[C@@H](C)CC)C(C)C)C(C)C [SEQ ID NO: 16] (H-[NMeI]VLSLDVPIGLLQILLEQARARAAREQAK([AEEA-AEEA-γGlu-γGlu-C20 diacid])TN[Aib]EILAEV-NH2) | > 5000 | > 5000 | 9.4 | 7.8 | 0.117 | 7.8 | 87 | 24 | 9.8 | 31 | 10 | >1852 | 2.7 | No | 20.6 | 19.8 | 17.9 | 18.0 | No | No | Amyloid fibril formation pH 7.5 ([1]; pH 7.5): No; Amyloid fibril formation pH 8.0 [1]: No |
| CC[C@H](C)[C@H](NC)C(=O)N[C@H](C(=O)N[C@@H](CC(C)C)C(=O)N[C@@H](CO)C(=O)N[C@@H](CC(C)C)C(=O)N[C@@H](CC(=O)O)C(=O)N[C@H](C(=O)N1CCC[C@H]1C(=O)N[C@H](C(=O)NCC(=O)N[C@@H](CC(C)C)C(=O)N[C@@H](CC(C)C)C(=O)N[C@@H](CCC(N)=O)C(=O)N[C@H](C(=O)N[C@@H](CC(C)C)C(=O)N[C@@H](CC(C)C)C(=O)N[C@@H](CCC(=O)O)C(=O)N[C@@H](CCC(N)=O)C(=O)N[C@@H](C)C(=O)N[C@@H](CCCNC(=N)N)C(=O)N[C@@H](C)C(=O)N[C@@H](CCCNC(=N)N)C(=O)N[C@@H](C)C(=O)N[C@@H](C)C(=O)N[C@@H](CCCNC(=N)N)C(=O)N[C@@H](CCC(=O)O)C(=O)N[C@@H](CCC(N)=O)C(=O)N[C@@H](C)C(=O)N[C@H](C(=O)N[C@@H](CCCCNC(=O)COCCOCCNC(=O)COCCOCCNC(=O)CC[C@H](NC(=O)CC[C@H](NC(=O)CCCCCCCCCCCCCCCCCCC(=O)O)C(=O)O)C(=O)O)C(=O)N[C@@H](CC(N)=O)C(=O)N[C@@H](C)C(=O)N[C@@H](CCC(=O)O)C(=O)N[C@H](C(=O)N[C@@H](CC(C)C)C(=O)N[C@@H](C)C(=O)N[C@@H](CCC(=O)O)C(=O)N[C@H](C(N)=O)C(C)C)[C@@H](C)CC)[C@@H](C)O)[C@@H](C)CC)[C@@H](C)CC)C(C)C)C(C)C [SEQ ID NO: 6] (H-[NMeI]VLSLDVPIGLLQILLEQARARAAREQATK([AEEA-AEEA-γGlu-γGlu-C20 diacid])NAEILAEV-NH2) | > 5000 | > 5000 | 7.4 | 6.1 | 0.15 | 6.1 | 70 | 24 | 8.4 | 35 |  | >1852 | 2.7 | No | 21.1 | 20.0 | 18.7 | 18.1 | No | No | EC50 (hCRHR2; stable cell system, Table 10, read-out: Stable EC50 (nM) hCRHR 2a): 3 nM; Amyloid fibril formation pH 7.5 ([1]; pH 7.5): No; Amyloid fibril formation pH 8.0 [1]: No |
